Measured values as given in US11642346B2, “Combination therapy for treating cancer” (Epizyme, Inc., priority 2017, dated 2023).

Experiments:
CHLA-266 cells [1] = assay: Combination of tazemetostat with other agents, pretreatment model, luminescent cell viability (ATP) assay; format: cell-based; conditions: pretreatment model: 4 days tazemetostat, then 4 days agent alone or with tazemetostat, synergy by Loewe Volume, Fa-CI plots
Protocol: (§1) Proliferation data was read for luminescence. Calculations of synergy were performed using the Loewe Volume (Chalice Software) and Fa-CI plots were generated with Calcusyn.

BT-12 cells [2] = assay: as above; format: cell-based; conditions: pretreatment model: 4 days tazemetostat, then 4 days agent alone or with tazemetostat, synergy by Loewe Volume, Fa-CI plots
Protocol: as §1

A204 cells = assay: Combination of tazemetostat with other agents, co-treatment model, luminescent cell viability (ATP) assay; format: cell-based; conditions: grown for seven days
Text: (§2) Proliferation data was read for luminescence.

G401 cells = assay: as above; format: cell-based; conditions: grown for seven days
Text: as §2

AT/RT and MRT cell lines = assay: In vitro combination studies of tazemetostat in a panel of AT/RT and MRT cell lines; format: cell-based; conditions: cell line models of AT/RT and MRT
MRT = conditions: preclinical models of MRT; cited from earlier work
CHLA-266 cells [3] = assay: Antiproliferative activity of tazemetostat, 2D culture, luminescent cell viability assay; format: cell-based; conditions: 0.08-10 μM, days 4, 6, 7, 11 and 15
Protocol: (§3) Cell viability was measured in a luminescent cell viability assay and is represented by luminescence counts.

BT-12 cells [4] = assay: as above; format: cell-based; conditions: 0.08-10 μM, days 4, 6, 7, 11 and 15
Protocol: as §3

[5] = tested on: atypical teratoid rhabdoid tumor (AT/RT) cells; assay: Tazemetostat pre-treatment followed by X-ray irradiation, 11 day clonogenic assay; format: cell-based; conditions: primed seven days, X-ray 2 Gy

| SMILES | Combination treatment with tazemetostat, CHLA-266 (CHLA-266 cells [1]) | Combination treatment with tazemetostat, BT-12 (BT-12 cells [2]) | Combination treatment with tazemetostat, A204 (A204 cells) | Combination treatment with tazemetostat, G401 (G401 cells) | Antiproliferative effect of combination with tazemetostat (AT/RT and MRT cell lines) | also measured |
| --- | --- | --- | --- | --- | --- | --- |
| Nc1ccn([C@@H]2O[C@H](CO)[C@@H](O)[C@@H]2O)c(=O)n1 [Cytarabine/Ara-C, Cytarabine] | Additive | Synergy | Additive | Additive | – | – |
| CC[C@]1(O)C[C@H]2CN(CCc3c([nH]c4ccccc34)[C@@](C(=O)OC)(c3cc4c(cc3OC)N(C=O)[C@H]3[C@@](O)(C(=O)OC)[C@H](OC(C)=O)[C@]5(CC)C=CCN6CC[C@]43[C@@H]65)C2)C1 [Vincristine] | Synergy | Synergy | Synergy | – | Synergistic activity | Combination treatment with tazemetostat, CHLA-266 (CHLA-266 cells [1]; listed as vincristine): synergy; Combination treatment with tazemetostat, BT-12 (BT-12 cells [2]; listed as vincristine): synergy; Combination treatment with tazemetostat, A204 (A204 cells; listed as vincristine): synergy; Combination treatment with tazemetostat, G401 (G401 cells; listed as vincristine): synergy |
| Nc1ccccc1NC(=O)c1ccc(CNC(=O)OCc2cccnc2)cc1 [Entinostat] | Synergy | Synergy | Additive | Synergy | enhanced the antiproliferative effect | Combination treatment with tazemetostat, CHLA-266 (CHLA-266 cells [1]; listed as entinostat): synergy; Combination treatment with tazemetostat, BT-12 (BT-12 cells [2]; listed as entinostat): synergy; Combination treatment with tazemetostat, A204 (A204 cells; listed as entinostat): synergy; Combination treatment with tazemetostat, G401 (G401 cells; listed as entinostat): synergy |
| CCN(c1cc(-c2ccc(CN3CCOCC3)cc2)cc(C(=O)NCc2c(C)cc(C)[nH]c2=O)c1C)C1CCOCC1 [tazemetostat] | – | – | – | – | – | Tumor response to tazemetostat treatment (MRT): robust tumor regressions; Cell death / cell viability (CHLA-266 cells [3]): Time and dose dependent increases in cell death; Cell death / cell viability (BT-12 cells [4]): Time and dose dependent increases in cell death; Clonogenic survival, tazemetostat priming prior to X-ray irradiation [5]: reduction in clonogenic survival |
| CC[C@@]1(O)C(=O)OCc2c1cc1n(c2=O)Cc2cc3c(CN(C)C)c(O)ccc3nc2-1 [Topotecan] | Synergy | Synergy | Additive | Synergy | synergistic interactions | – |
| CO[C@H]1C[C@@H]2CC[C@@H](C)[C@@](O)(O2)C(=O)C(=O)N2CCCC[C@H]2C(=O)O[C@H]([C@H](C)C[C@@H]2CC[C@@H](OCCO)[C@H](OC)C2)CC(=O)[C@H](C)/C=C(\C)[C@@H](O)[C@@H](OC)C(=O)[C@H](C)C[C@H](C)/C=C/C=C/C=C/1C [Everolimus] | Synergy | Synergy | Additive | Additive | – | – |
| N.N.O=C([O-])C1(C(=O)[O-])CCC1.[Pt+2] [Carboplatin] | Additive | Additive | Additive | – | – | – |
| COc1cc(Nc2ncc3c(n2)-c2ccc(Cl)cc2C(c2c(F)cccc2OC)=NC3)ccc1C(=O)O [Alisertib] | Synergy | Synergy | Additive | Additive | Synergistic activity | Combination treatment with tazemetostat, CHLA-266 (CHLA-266 cells [1]; listed as alisertib): synergy; Combination treatment with tazemetostat, BT-12 (BT-12 cells [2]; listed as alisertib): synergy; Combination treatment with tazemetostat, A204 (A204 cells; listed as alisertib): synergy; Combination treatment with tazemetostat, G401 (G401 cells; listed as alisertib): synergy |
| COc1cccc2c1C(=O)c1c(O)c3c(c(O)c1C2=O)C[C@@](O)(C(=O)CO)C[C@@H]3O[C@H]1C[C@H](N)[C@H](O)[C@H](C)O1 [Doxorubicin] | Synergy | Synergy | Additive | Additive | Synergistic activity | Combination treatment with tazemetostat, CHLA-266 (CHLA-266 cells [1]; listed as doxorubicin): synergy; Combination treatment with tazemetostat, BT-12 (BT-12 cells [2]; listed as doxorubicin): synergy; Combination treatment with tazemetostat, A204 (A204 cells; listed as doxorubicin): synergy; Combination treatment with tazemetostat, G401 (G401 cells; listed as doxorubicin): synergy |
| COc1cc([C@@H]2c3cc4c(cc3[C@@H](O[C@@H]3O[C@@H]5CO[C@@H](C)O[C@H]5[C@H](O)[C@H]3O)[C@H]3COC(=O)[C@H]23)OCO4)cc(OC)c1O [Etoposide] | Additive | Additive | Additive | Synergy | – | – |
